Experimental data reported in US10669283B2, “Compound and pharmacologically acceptable salt thereof” (MEIJI SEIKA PHARMA CO., LTD., priority 2016, dated 2020).
pIC50: −log10 of the molar value. Read-outs that look alike come from different tables or passages of the source.

How the values were obtained:
PDE4 = PDE4 inhibition, scintillation proximity assay (SPA); type: biochemical
How it was run: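 Scintillation proximity read-out: [2,8-3H]-cAMP hydrolysis by PDE4 ran 120 min at room temperature in Tris-HCl pH 7.4 buffer with 8.3 mM MgCl2, 1.7 mM EGTA and 3 mg/mL BSA. Bead-bound product (YSi-SPA with ZnSO4, 15 min) counted; blank lacks enzyme, control has DMSO only.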

[1] = Hepatic metabolic stability (rat liver microsome method); type: in vitro ADME; settings: rat liver microsomes 0.5 mg/mL, test substance 1 μM, NADPH 1 mM, 37° C., 30 minutes
Method: Metabolic stability in rat liver microsomes was evaluated by the following method. In 100 mM of potassium phosphate buffer solution (pH 7.4), liver microsomes (concentration at reaction: 0.5 mg/mL) and the test substance (concentration at reaction: 1 μM) were preincubated at 37° C. Five minutes later, 100 mM of potassium phosphate buffer (pH 7.4) solution of NADPH (concentration at reaction: 1 mM) was mixed thereto to start the reaction. After a predetermined time passed, acetonitrile was mixed to the reaction mixture to stop the reaction. Here, the reaction time was 0 and 30 minutes, and drug concentration measurement was performed for each time period using LC-MS. The % remaining value of the test compound was calculated from the value for 0 minutes and the value for 30 minutes, using the calculation formula below: % Remaining=(Value for 30 Minutes/Value for 0 Minutes)×100
The results of measuring the rat liver microsome metabolic Stability (% remaining for 30-minute reaction) for the test compound by the above method were evaluated in accordance with the following evaluated basis; A: a % remaining rate of 75% or more, B: 60% or more and less than 75%, C: 45% or more and less than 60%, and D: less than 45%.

[2] = scintillation proximity assay (SPA), evaluated as classes A, B, C, read-out: PDE4 Inhibitory Activity (concentration for the inhibition rate of 50%)
[3] = scintillation proximity assay, class symbols, read-out: PDE4 Inhibitory Activity

| SMILES | pIC50 (PDE4; [2]) | Residual ratio (% remaining for 30-minute reaction) [1] | pIC50 (PDE4; [3]) |
| --- | --- | --- | --- |
| FC(F)(F)Oc1c(Cl)cc(-c2cscn2)c2oc(N3CC4CCC(C3)N4)nc12 [Example 8, 2-(3,8-Diazabicyclo[3.2.1]octan-3-yl)-5-chloro-7-(thiazol-4-yl)-4-(trifluoromethoxy)benzo[d]oxazole] | > 7.00 | A (a % remaining rate of 75% or more) |  |
| NC(=O)C(F)(F)Oc1ccc(-c2nccs2)c2oc(N3CC4CC(C3)N4)nc12 [Example 410, 2-((2-(3,6-diazabicyclo [3.1.1]heptan-3-yl)-7-(thiazol-2-yl)benzo[d]oxazol-4-yl)oxy)-2,2-difluoro-acetamide] |  | A (a % remaining rate of 75% or more) | > 7.00 |
| FC(F)(F)C(OCc1nnn[nH]1)c1ccc(-c2nccs2)c2oc(N3CC4CC(C3)N4)nc12 (stereo not drawn) [Example 231, 4-(1-((1H-tetrazol-5-yl)methoxy)-2,2,2-trifluoroethyl)-2-(3,6-diazabicyclo[3.1.1]heptan-3-yl)-7-(thiazol-2-yl)benzo[d]oxazole] | > 7.00 | A (a % remaining rate of 75% or more) |  |
| c1cnc(Oc2ccc(-c3nccs3)c3oc(N4CC5CC(C4)N5)nc23)cn1 [Example 339, 2-(3,6-diazabicyclo[3.1.1]heptan-3-yl)-4-(pyrazin-2-yloxy)-7-(thiazol-2-yl)benzo [d]oxazole] |  | B (60% or more and less than 75%) | > 7.00 |
| CC(C)(O)C(F)(F)Oc1ccc(-c2ccc(F)cn2)c2oc(N3CC4CC(C3)N4)nc12 [Example 329, 1-((2-(3,6-Diazabicyclo[3.1.1]heptan-3-yl)-7-(5-fluoropyridin-2-yl)benzo[d]oxazol-4-yl)oxy)-1,1-difluoro-2-methylpropan-2-ol] |  | A (a % remaining rate of 75% or more) | > 7.00 |
| O=C(N1CCOCC1)C(F)(F)Oc1ccc(-c2nccs2)c2oc(N3CC4CC(C3)N4)nc12 [Example 409, 2-((2-(3,6-diazabicyclo [3.1.1]heptan-3-yl)-7-(thiazol-2-yl)benzo[d]oxazol-4-yl)oxy)-2,2-difluoro-1-morpholino-ethan-1-one] |  | B (60% or more and less than 75%) | > 7.00 |
| COCCNS(=O)(=O)c1ccc(-c2nccs2)c2oc(N3CC4CC(C3)N4)nc12 [Example 387, 2-(3,6-diazabicyclo[3.1.1]heptan-3-yl)-N-(2-methoxyethyl)-7-(thiazol-2-yl)benzo [d]oxazole-4-sulfonamide] |  | A (a % remaining rate of 75% or more) | > 7.00 |
| OCc1ccc(Oc2ccc(-c3nccs3)c3oc(N4CC5CC(C4)N5)nc23)nc1 [Example 341, (6-((2-(3,6-diazabicyclo[3.1.1]heptan-3-yl)-7-(thiazol-2-yl)benzo[d]oxazol-4-yl)oxy)pyridin-3-yl)methanol] |  | A (a % remaining rate of 75% or more) | > 7.00 |
| CC(C)(O)C(F)(F)Oc1ccc(-c2ccccn2)c2oc(N3CC4CCC(C3)N4)nc12 [Example 317, 1-((2-(3,8-Diazabicyclo[3.2.1]octan-3-yl)-7-(pyridin-2-yl)benzo[d]oxazol-4-yl)oxy)-1,1-difluoro-2-methylpropan-2-ol] | > 7.00 | A (a % remaining rate of 75% or more) |  |
| c1csc(-c2ccc(OC3CCOCC3)c3nc(N4CC5CC(C4)N5)oc23)n1 [Example 294, 2-(3,6-Diazabicyclo[3.1.1]heptan-3-yl)-4-((tetrahydro-2H-pyran-4-yl)oxy)-7-(thiazol-2-yl)benzo[d]oxazole] | > 7.00 | A (a % remaining rate of 75% or more) |  |
| CN(CCO)C(=O)c1ccc(-c2nccs2)c2oc(N3CC4CC(C3)N4)nc12 [Example 356, 2-(3,6-diazabicyclo [3.1.1]heptan-3-yl)-N-(2-hydroxyethyl)-N-methyl-7-(thiazol-2-yl)benzo[d] oxazole-4-carboxamide] |  | A (a % remaining rate of 75% or more) | 6.00 to 7.00 |
| c1cc(-c2nccs2)c2oc(N3CC4CC(C3)N4)nc2c1 [Example 382, 2-(3,6-diaza-bicyclo[3.1.1]heptan-3-yl)-7-(thiazol-2-yl) benzo[d]oxazole] |  | B (60% or more and less than 75%) | > 7.00 |
| OCC(F)(F)Oc1c(Cl)cc(-c2nccs2)c2oc(N3CC4CC(C3)N4)nc12 [Example 401, 2-((2-(3,6-diazabicyclo [3.1.1]heptan-3-yl)-5-chloro-7-(thiazol-2-yl)benzo[d]oxazol-4-yl)oxy)-2,2-difluoroethan-1-ol] |  | A (a % remaining rate of 75% or more) | > 7.00 |
| CC(C)(O)C(F)(F)Oc1ccc(-c2ccsn2)c2oc(N3CC4CCC(C3)N4)nc12 [Example 331, 1-((2-(3,8-diazabicyclo [3.2.1]octan-3-yl)-7-(isothiazol-3-yl)benzo [d]oxazol-4-yl)oxy)-1,1-difluoro-2-methylpropan-2-ol] |  | B (60% or more and less than 75%) | > 7.00 |
| FC(F)(F)c1c(Cl)cc(-c2ccccn2)c2oc(N3CC4CCCC(C3)N4)nc12 [Example 12, 2-(3,9-Diazabicyclo[3.3.1]nonan-3-yl)-5-chloro-7-(pyridin-2-yl)-4-(trifluoromethyl)benzo[d]oxazole] | > 7.00 | B (60% or more and less than 75%) |  |
| OC(c1ccc(-c2nccs2)c2oc(N3CC4CC(C3)N4)nc12)C(F)F (stereo not drawn) [Example 125, 1-(2-(3,6-Diazabicyclo[3.1.1]heptan-3-yl)-7-(thiazol-2-yl)benzo[d]oxazol-4-yl)-2,2-difluoroethan-1-ol] | > 7.00 |  |  |
| OC(c1cc(-c2cscn2)c2oc(N3CC4CCC(C3)N4)nc2c1OC(F)(F)F)C(F)F (stereo not drawn) [Example 302, 1-(2-(3,8-Diazabicyclo[3.2.1]octan-3-yl)-7-(thiazol-4-yl)-4-(trifluoromethoxy)benzo[d]oxazol-5-yl)-2,2-difluoroethan-1-ol] | > 7.00 |  |  |
| OC(c1ccc(-c2nccs2)c2oc(N3CC4CCC(C3)N4)nc12)C(F)F (stereo not drawn) [Example 128, 1-(2-(3,8-Diazabicyclo[3.2.1]octan-3-yl)-7-(thiazol-2-yl)benzo[d]oxazol-4-yl)-2,2-difluoroethan-1-ol] | > 7.00 |  |  |
| COC(c1ccc(-c2nccs2)c2oc(N3CC4CCC(C3)N4)nc12)C(F)F (stereo not drawn) [Example 131, 2-(3,8-Diazabicyclo[3.2.1]octan-3-yl)-4-(2,2-difluoro-1-methoxyethyl)-7-(thiazol-2-yl)benzo[d]oxazole] | > 7.00 |  |  |
| FC(F)(F)c1c(Cl)cc(-c2ccccn2)c2oc(N3CC4COCC(C3)N4)nc12 [Example 14, 7-(5-Chloro-7-(pyridin-2-yl)-4-(trifluoromethyl)benzo[d]oxazol-2-yl)-3-oxa-7,9-diazabicyclo[3.3.1]nonane] | 6.00 to 7.00 |  |  |
| CCC(O)c1cc(-c2nccs2)c2oc(N3CC4CCC(C3)N4)nc2c1OC(F)(F)F (stereo not drawn) [Example 204, 1-(2-(3,8-Diazabicyclo[3.2.1]octan-3-yl)-7-(thiazol-2-yl)-4-(trifluoromethoxy)benzo[d]oxazol-5-yl)propan-1-ol] | > 7.00 |  |  |
